Legend:
[1] = test system: DU-145; assay: Growth inhibition of human DU145 cells assessed as cell growth at 0.01 uM after 48 hrs by SRB assay relative to control; type: functional; conditions: DU-145, 48 h, read-out: Activity
[2] = test system: NCI-H460; assay: Growth inhibition of human NCI-H460 cells assessed as cell growth at 10 uM after 48 hrs by SRB assay relative to control; type: functional; conditions: NCI-H460, 48 h, read-out: Activity
[3] = test system: Hs-578T; assay: Growth inhibition of human Hs 578T cells assessed as cell growth at 0.1 uM after 48 hrs by SRB assay relative to control; type: functional; conditions: read-out: Activity
[4] = test system: RXF 393; assay: Growth inhibition of human RXF393 cells assessed as cell growth at 0.01 uM after 48 hrs by SRB assay relative to control; type: functional; conditions: RXF 393, 48 h, read-out: Activity
[5] = test system: T47D; assay: Growth inhibition of human T47D cells assessed as cell growth at 0.01 uM after 48 hrs by SRB assay relative to control; type: functional; conditions: read-out: Activity
[6] = test system: ACHN; assay: Growth inhibition of human ACHN cells assessed as cell growth at 0.01 uM after 48 hrs by SRB assay relative to control; type: functional; conditions: read-out: Activity
[7] = test system: COLO 205; assay: Antiproliferative activity against human COLO205 cells assessed as reduction in cell viability by MTT assay; type: functional, cell-based
[8] = test system: IGROV-1; assay: Growth inhibition of human IGROV1 cells assessed as cell growth at 100 uM after 48 hrs by SRB assay relative to control; type: functional; conditions: IGROV-1, 48 h, read-out: Activity
[9] = test system: SK-OV-3; assay: Growth inhibition of human SKOV3 cells assessed as cell growth at 0.1 uM after 48 hrs by SRB assay relative to control; type: functional; conditions: SK-OV-3, 48 h, read-out: Activity
[10] = test system: SK-MEL-2; assay: Growth inhibition of human SK-MEL-2 cells assessed as cell growth at 10 uM after 48 hrs by SRB assay relative to control; type: functional; conditions: SK-MEL-2, 48 h, read-out: Activity
[11] = test system: SF-268; assay: Growth inhibition of human SF268 cells assessed as cell growth at 100 uM after 48 hrs by SRB assay relative to control; type: functional; conditions: SF-268, 48 h, read-out: Activity
[12] = test system: SK-MEL-28; assay: Growth inhibition of human SK-MEL-28 cells assessed as cell growth at 1 uM after 48 hrs by SRB assay relative to control; type: functional; conditions: SK-MEL-28, 48 h, read-out: Activity
[13] = test system: SK-MEL-2; assay: Cytotoxicity against human SK-MEL-2 cells assessed as growth inhibition after 48 hrs by SRB assay; type: functional; conditions: SK-MEL-2, 48 h
[14] = test system: A549; assay: Growth inhibition of human A549/ATCC cells assessed as cell growth at 10 uM after 48 hrs by SRB assay relative to control; type: functional; conditions: A549, 48 h, read-out: Activity
[15] = test system: 786-0; assay: Growth inhibition of human 786-0 cells assessed as cell growth at 1 uM after 48 hrs by SRB assay relative to control; type: functional; conditions: 786-0, 48 h, read-out: Activity
[16] = test system: RPMI-8226; assay: Growth inhibition of human RPMI8226 cells assessed as cell growth at 1 uM after 48 hrs by SRB assay relative to control; type: functional; conditions: RPMI-8226, 48 h, read-out: Activity
[17] = test system: NCI-H522; assay: Growth inhibition of human NCI-H522 cells assessed as cell growth at 1 uM after 48 hrs by SRB assay relative to control; type: functional; conditions: NCI-H522, 48 h, read-out: Activity
[18] = test system: HCC 2998; assay: Growth inhibition of human HCC2998 cells assessed as cell growth at 0.01 uM after 48 hrs by SRB assay relative to control; type: functional; conditions: HCC 2998, 48 h, read-out: Activity
[19] = test system: T47D; assay: Growth inhibition of human T47D cells assessed as cell growth at 1 uM after 48 hrs by SRB assay relative to control; type: functional; conditions: read-out: Activity
[20] = test system: ACHN; assay: Growth inhibition of human ACHN cells assessed as cell growth at 10 uM after 48 hrs by SRB assay relative to control; type: functional; conditions: read-out: Activity
[21] = test system: OVCAR-8; assay: Growth inhibition of human OVCAR8 cells assessed as cell growth at 0.1 uM after 48 hrs by SRB assay relative to control; type: functional; conditions: OVCAR-8, 48 h, read-out: Activity
[22] = test system: SK-MEL-28; assay: Growth inhibition of human SK-MEL-28 cells assessed as cell growth at 100 uM after 48 hrs by SRB assay relative to control; type: functional; conditions: SK-MEL-28, 48 h, read-out: Activity
[23] = test system: HCT-15; assay: Growth inhibition of human HCT15 cells assessed as cell growth at 0.01 uM after 48 hrs by SRB assay relative to control; type: functional; conditions: HCT-15, 48 h, read-out: Activity
[24] = test system: RPMI-8226; assay: Cytotoxicity against human RPMI8226 cells assessed as growth inhibition after 48 hrs by SRB assay; type: functional; conditions: RPMI-8226, 48 h
[25] = test system: IGROV-1; assay: Cytotoxicity against human IGROV1 cells assessed as growth inhibition after 48 hrs by SRB assay; type: functional; conditions: IGROV-1, 48 h
[26] = test system: UO-31; assay: Growth inhibition of human UO31 cells assessed as cell growth at 10 uM after 48 hrs by SRB assay relative to control; type: functional; conditions: UO-31, 48 h, read-out: Activity
[27] = test system: NCI-H23; assay: Cytotoxicity against human NCI-H23 cells assessed as growth inhibition after 48 hrs by SRB assay; type: functional; conditions: NCI-H23, 48 h
[28] = test system: CAKI-1; assay: Cytotoxicity against human Caki1 cells assessed as growth inhibition after 48 hrs by SRB assay; type: functional; conditions: CAKI-1, 48 h
[29] = test system: UO-31; assay: Growth inhibition of human UO31 cells assessed as cell growth at 100 uM after 48 hrs by SRB assay relative to control; type: functional; conditions: UO-31, 48 h, read-out: Activity
[30] = test system: UACC-257; assay: Growth inhibition of human UACC257 cells assessed as cell growth at 100 uM after 48 hrs by SRB assay relative to control; type: functional; conditions: UACC-257, 48 h, read-out: Activity
[31] = test system: T47D; assay: Growth inhibition of human T47D cells assessed as cell growth at 10 uM after 48 hrs by SRB assay relative to control; type: functional; conditions: read-out: Activity
[32] = test system: SN12C; assay: Growth inhibition of human SN12C cells assessed as cell growth at 0.01 uM after 48 hrs by SRB assay relative to control; type: functional; conditions: read-out: Activity
[33] = read-out: LC50 (the source's name)
[34] = read-out: pLC50 (the source's name) (converted)

## COc1ccc2c(c1)CCc1n[nH]c(-c3cc(OC)c(OC)c(OC)c3)c1-2
[1]
  growth at 0.01 µM: 13%
[2]
  growth at 10 µM: -5%
[3]
  growth at 0.1 µM: 17%
[4]
  growth at 0.01 µM: -8%
[5]
  growth at 0.01 µM: 59%
[6]
  growth at 0.01 µM: 30%
[7]
  IC50: 7 nM
[8]
  growth at 100 µM: -33%
[9]
  growth at 0.1 µM: -2%
[10]
  growth at 10 µM: 38%
[11]
  growth at 100 µM: -25%
[12]
  growth at 1 µM: 54%
[13]; read-out: GI50
  GI50: < 10 nM
[13]; read-out: LC50
  LC50: 98.7 µM
[13]; read-out: TGI
  TGI: 26.8 µM
[13]; read-out: pGI50 (converted)
  GI50: < 10 nM
[13]; read-out: pLC50 (converted)
  LC50: 97.7 µM
[13]; read-out: pTGI (converted)
  TGI: 26.9 µM
[14]
  growth at 10 µM: 11%
[15]
  growth at 1 µM: 14%
[16]
  growth at 1 µM: 52%
[17]
  growth at 1 µM: -16%
[18]
  growth at 0.01 µM: 15%
[19]
  growth at 1 µM: 69%
[20]
  growth at 10 µM: 15%
[21]
  growth at 0.1 µM: 13%
[22]
  growth at 100 µM: -66%
[23]
  growth at 0.01 µM: 6%
[24]; [33]
  CC50: > 100 µM
[24]; read-out: TGI
  TGI: > 100 µM
[24]; [34]
  CC50: > 100 µM
[24]; read-out: pTGI
  TGI: > 100 µM
[25]; read-out: GI50
  GI50: < 10 nM
[25]; [33]
  CC50: > 100 µM
[25]; read-out: TGI
  TGI: 23.7 µM
[25]; read-out: pGI50 (converted)
  GI50: < 10 nM
[25]; [34]
  CC50: > 100 µM
[25]; read-out: pTGI (converted)
  TGI: 24 µM
[26]
  growth at 10 µM: 13%
[27]; read-out: GI50
  GI50: < 10 nM
[27]; [33]
  CC50: > 100 µM
[27]; read-out: TGI
  TGI: 3.53 µM
[27]; read-out: pGI50 (converted)
  GI50: < 10 nM
[27]; [34]
  CC50: > 100 µM
[27]; read-out: pTGI (converted)
  TGI: 3.55 µM
[28]; read-out: GI50
  GI50: < 10 nM
[28]; read-out: LC50
  LC50 (concentration killing 50% of cells): > 100 µM
[28]; read-out: TGI
  TGI: 24.8 µM
[28]; read-out: pGI50 (converted)
  GI50: < 10 nM
[28]; read-out: pLC50 (converted)
  LC50 (concentration killing 50% of cells): > 100 µM
[28]; read-out: pTGI (converted)
  TGI: 24.5 µM
[29]
  growth at 100 µM: -43%
[30]
  growth at 100 µM: -49%
[31]
  growth at 10 µM: 35%
[32]
  growth at 0.01 µM: 39%

— ChEMBL document CHEMBL4346757, “Synthesis and biological evaluation of 7-methoxy-1-(3,4,5-trimethoxyphenyl)-4,5-dihydro-2H-benzo[e]indazoles as new colchicine site inhibitors” (Bioorg Med Chem Lett, 2019)
